Consider four compounds from patent US20160199371A1, “PHARMACEUTICAL COMPOSITION HAVING PYRIMIDINE COMPOUND AS ACTIVE INGREDIENT” (ASTELLAS PHARMA INC, priority 2013, published 2016).

Structures are written as SMILES.

The subject of one assay is HuH-7 cell. The assay can be described thus: Growth assay of FGF19 gene amplification-positive liver cancer cell (HuH-7). The assay is classed as cell-based. The note with it: Homo sapiens, Huh-7, 120 h; test compound 37 nM, 5 days; read-out: HuH-7 Cell Growth Inhibitory Rate. The procedure: After 5 days from the addition of the test compound solution, the number of HuH-7 cells were measured with ARVO×3 (Perkin Elmer) using a CellTiter-Glo Luminescent Cell Viability Assay (Promega). […] That is, the inhibitory rate was calculated by <the growth inhibitory rate (%)>=<1−(the measured value of the well to which the test compound was added>−<the measured value of the well to which the cells were not added (only medium present)>)/{<the measured value of the well to which the test compound was not added (only DMSO was added)>−<the measured value of the well to which the cells were not added (only medium present)}]×100.

The target of another assay is T1, human recombinant FGFR4 (Homo sapiens, UniProt P22455).
T1 construct: purchased CARNA BIOSCIENCES; Inc. 08CBS-0716C
The assay can be described thus: FGFR4 enzyme assay. The assay is classed as biochemical. The note with it: test compound 10 nM; read-out: FGFR4 Kinase Activity Inhibitory Rate. The procedure: The outline of the measurement method is shown below.
Into a well of a 384-well plate,
(1) 4 μL of a compound solution was added,
(2) 2 μL of an FGFR4 enzyme (3 ng/μL) diluted with a reaction buffer was added,
(4) the mixture was allowed to undergo a reaction at room temperature for 30 minutes (concentration of the test compound species during assay of 10 nM).
(5) 15 μL/well of a 20 mM EDTA solution was added thereto to stop the reaction, and then in a LabChip EZ Reader (Perkin Elmer), the amount of a phosphorylated substrate peptide produced by the kinase reaction of FGFR4 was measured.

The subject of assay [1] is FGF19 gene amplification-positive liver cancer cell (HuH-7). The assay can be described thus: Antitumor test using mouse model subcutaneously transplanted with HuH-7 cells. The assay is classed as in vivo, nude mice. The note with it: 1 mg/kg/day oral once daily. The protocol: HuH-7 cells at 3×10^6 cells/0.1 mL (solution suspended in PBS and Matrigel at 1:1) was subcutaneously transplanted to nude mice (CanN.Cg-Foxn1 nu/CrlCrlj(nu/nu): Charles River Laboratories Japan, Inc., male, 4-5 week old). After about 3 weeks after the transplantation, the mice were grouped according to the tumor volumes and body weights. […] The test compound was made into a suspension using a 0.5% aqueous methyl cellulose solution and orally administered once a day daily. […] For the tumor volume, a short diameter and long diameter were measured using a calipers, and the tumor volume was calculated by (tumor volume mm^3)=(short diameter mm×short diameter mm×long diameter mm)/2. […] The tumor growth inhibitory rate of test compound was calculated by <the tumor growth inhibitory rate (%)>=<1−(increase in the tumor volume of the test compound-administered group/increase in the tumor volumes of the control group)>×100. The increase in the tumor volume was calculated by (increase in the tumor volume)=(the tumor volume on the final day of each group)−(the tumor volume on the 0th day of each group).

The subject of assay [2] is surgically unresectable liver cancer. The note with it: extension from 7.9 months; N Engl J Med. 2008; cited from earlier work.

T1 sequence (P22455 22-802): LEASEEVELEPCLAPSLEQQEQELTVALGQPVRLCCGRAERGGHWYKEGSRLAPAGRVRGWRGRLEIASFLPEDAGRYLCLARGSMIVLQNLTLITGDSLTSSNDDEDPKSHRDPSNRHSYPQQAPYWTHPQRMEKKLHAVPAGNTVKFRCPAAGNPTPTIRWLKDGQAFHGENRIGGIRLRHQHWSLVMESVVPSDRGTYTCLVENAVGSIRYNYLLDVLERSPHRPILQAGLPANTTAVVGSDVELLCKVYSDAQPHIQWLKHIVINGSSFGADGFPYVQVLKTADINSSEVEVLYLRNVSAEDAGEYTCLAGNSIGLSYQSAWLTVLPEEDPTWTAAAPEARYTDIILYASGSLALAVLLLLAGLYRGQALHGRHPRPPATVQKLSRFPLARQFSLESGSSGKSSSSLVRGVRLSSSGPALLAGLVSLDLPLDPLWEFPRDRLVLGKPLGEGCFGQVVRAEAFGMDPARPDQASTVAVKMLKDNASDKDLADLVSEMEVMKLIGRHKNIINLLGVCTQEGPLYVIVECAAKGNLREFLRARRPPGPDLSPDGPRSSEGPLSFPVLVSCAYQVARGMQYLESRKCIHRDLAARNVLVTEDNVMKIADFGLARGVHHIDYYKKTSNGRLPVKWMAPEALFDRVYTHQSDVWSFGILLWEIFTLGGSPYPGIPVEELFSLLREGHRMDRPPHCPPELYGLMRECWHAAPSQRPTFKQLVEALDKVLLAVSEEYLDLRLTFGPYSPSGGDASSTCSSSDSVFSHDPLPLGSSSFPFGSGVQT

`COc1cc(Nc2ncc(OCc3c(F)c(OC)cc(OC)c3F)cn2)ccc1N1CCC(N2CCN(C)CC2)CC1` [Compound A, 5-[(2,6-difluoro-3,5-dimethoxybenzyl)oxy]-N-{3-methoxy-4-[4-(4-methylpiperazin-1-yl)piperidin-1-yl]phenyl}pyrimidin-2-amine]: the inhibition at 0.037 µM in the assay with HuH-7 cell turned out to be 53%. Besides, the inhibition at 0.01 µM at human recombinant FGFR4 was 78%. In assay [1] (final day 10th day), the “Tumor growth inhibitory rate” value turned out to be 80%.
In the same order, the values of `COc1cc(OC)c(F)c(COc2cnc(Nc3ccc(N4CCN(C)CC4)cc3)nc2)c1F` [Compound D, 5-[(2,6-difluoro-3,5-dimethoxybenzyl)oxy]-N-[4-(4-methylpiperazin-1-yl)phenyl]pyrimidin-2-amine] are 65%, 82% and 67%.
Take `COc1cc(OC)c(F)c(COc2cnc(Nc3cc(CN4CCN(C)CC4)n(C)n3)nc2)c1F` [Compound E, 5-[(2,6-difluoro-3,5-dimethoxybenzyl)oxy]-N-{1-methyl-5-[(4-methylpiperazin-1-yl)methyl]-1H-pyrazol-3-yl}pyrimidin-2-amine]: in the assay with HuH-7 cell, the inhibition at 0.037 µM turned out to be 11%. The inhibition at 0.01 µM at human recombinant FGFR4 is 31%. Also, the “Tumor growth inhibitory rate” value in assay [1] (final day 9th day) came out at 44%.
In the case of `CNC(=O)c1cc(Oc2ccc(NC(=O)Nc3ccc(Cl)c(C(F)(F)F)c3)cc2)ccn1` [sorafenib], the survival in assay [2] was 10.7 months.
